Like-named read-outs stand apart in the source and are kept apart here.
How the values were obtained:
GST-Bc1-2 = GST-Bc1-2 (Homo sapiens, UniProt P10415); assay: Time Resolved-Fluorescence Resonance Energy Transfer (TR-FRET) Bcl-2 binding assay with F-Bak peptide probe
RS4;11 cells = assay: RS4;11 Cell Viability Assay (CellTiter Glo); assay type: cell-based; settings: Homo sapiens, RS4-11, 48 h, 50,000 cells per well, 10% human serum;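 note: RS4,11 acute lymphoblastic leukemia cells, viability as percent of untreated control cells, EC50 for loss of viable cells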
Procedure: The acute lymphoblastic leukemia (ALL) cell line RS4;11 was used as the primary human cell line to assess the cellular activity of Bcl-2 selective agents in vitro and their efficacy in vivo.
Cell cytotoxicity EC50 values were assessed using CellTiter Glo (Promega) according to the manufacturer's recommendations. The EC50 values were determined as a percentage of viable cells following treatment compared to the untreated control cells.

[1] = GST-Bcl-2 1 nM, F-Bak probe 100 nM, Tb-anti-GST 1 nM, '<' = below limit of detection, read-out: TR-FRET Bcl-2 Binding Ki

GST-Bc1-2, sequence (P10415 whole entry): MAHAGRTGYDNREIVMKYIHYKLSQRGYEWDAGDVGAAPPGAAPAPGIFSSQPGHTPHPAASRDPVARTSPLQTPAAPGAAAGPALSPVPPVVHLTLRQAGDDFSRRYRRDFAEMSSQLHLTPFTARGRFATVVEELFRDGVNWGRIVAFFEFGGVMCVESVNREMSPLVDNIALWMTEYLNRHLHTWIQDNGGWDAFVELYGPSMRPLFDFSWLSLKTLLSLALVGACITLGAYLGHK

Structure (SMILES)	Ki (GST-Bc1-2; [1]) [nM]	EC50 (RS4;11 cells) [nM]	Ki (GST-Bc1-2; read-out: Bcl-2 FRET ki) [nM]
Cc1nc2c(s1)CC(COc1ncc(S(=O)(=O)NC(=O)c3ccc(N4CCN(CC5=C(c6ccc(Cl)cc6)CC(C)(C)CC5)CC4)cc3Oc3cnc4[nH]ccc4c3)cc1Cl)CC2 (stereo not shown) [Example 387]	< 0.01	911	
CC1(O)CCC(COc2ncc(S(=O)(=O)NC(=O)c3ccc(N4CCN(CC5=C(c6ccc(Cl)cc6)CC6(CC5)CC6)CC4)cc3Oc3cnc4[nH]ccc4c3)cc2Cl)CC1 (stereo not drawn) [Example 341, N-({5-chloro-6-[(trans-4-hydroxy-4-methylcyclohexyl)methoxy]pyridin-3-yl}sulfonyl)-4-(4-{[5-(4-chlorophenyl)spiro[2.5]oct-5-en-6-yl]methyl}piperazin-1-yl)-2-(1H-pyrrolo[2,3-b]pyridin-5-yloxy)benzamide]		31.7	
CC1(C)CCC(CN2CCN(c3ccc(C(=O)NS(=O)(=O)c4cnc(NC5CCN(C6CCOCC6)CC5)c(Br)c4)c(Oc4cnc5[nH]ccc5c4)c3)CC2)=C(c2ccc(Cl)cc2)C1 [Example 61, N-({5-bromo-6-[(1-tetrahydro-2H-pyran-4-ylpiperidin-4-yl)amino]pyridin-3-yl}sulfonyl)-4-(4-{[2-(4-chlorophenyl)-4,4-dimethylcyclohex-1-en-1-yl]methyl}piperazin-1-yl)-2-(1H-pyrrolo[2,3-b]pyridin-5-yloxy)benzamide]	0.091	183	
CC1(C)CCC(CN2CCN(c3ccc(C(=O)NS(=O)(=O)c4ccc(NCC5CCC(C)(O)CC5)c([N+](=O)[O-])c4)c(Oc4cnc5[nH]ccc5c4)c3)CC2)=C(c2ccc(Cl)cc2)C1 (stereo not drawn) [Example 337, 4-(4-{[2-(4-chlorophenyl)-4,4-dimethylcyclohex-1-en-1-yl]methyl}piperazin-1-yl)-N-[(4-{[(trans-4-hydroxy-4-methylcyclohexyl)methyl]amino}-3-nitrophenyl)sulfonyl]-2-(1H-pyrrolo[2,3-b]pyridin-5-yloxy)benzamide]		1.76	
COCC1(O)CCC(COc2ncc(S(=O)(=O)NC(=O)c3ccc(N4CCN(CC5=C(c6ccc(Cl)cc6)CC(C)(C)CC5)CC4)cc3Oc3cnc4[nH]ccc4c3)cc2Cl)CC1 (stereo not drawn) [Example 399, N-[(5-chloro-6-{[trans-4-hydroxy-4-(methoxymethyl)cyclohexyl]methoxy}pyridin-3-yl)sulfonyl]-4-(4-{[2-(4-chlorophenyl)-4,4-dimethylcyclohex-1-en-1-yl]methyl}piperazin-1-yl)-2-(1H-pyrrolo[2,3-b]pyridin-5-yloxy)benzamide]	< 0.01	127	
CC1(C)CCC(CN2CCN(c3ccc(C(=O)NS(=O)(=O)c4cnc(OCC5CCC6(CC5)CNC(=O)O6)c(Cl)c4)c(Oc4cnc5[nH]ccc5c4)c3)CC2)=C(c2ccc(Cl)cc2)C1 (stereo not shown) [Example 385, N-({5-chloro-6-[(2-oxo-1-oxa-3-azaspiro[4.5]dec-8-yl)methoxy]pyridin-3-yl}sulfonyl)-4-(4-{[2-(4-chlorophenyl)-4,4-dimethylcyclohex-1-en-1-yl]methyl}piperazin-1-yl)-2-(1H-pyrrolo[2,3-b]pyridin-5-yloxy)benzamide]	< 0.01	133	
O=C(NS(=O)(=O)c1ccc(NCC2CCOCC2)c([N+](=O)[O-])c1)c1ccc(N2CCN(Cc3ccccc3-c3ccc(Cl)cc3)CC2)cc1Oc1ccc2[nH]ccc2c1 [Example 87, 4-{4-[(4′-chloro-1,1′-biphenyl-2-yl)methyl]piperazin-1-yl}-2-(1H-indol-5-yloxy)-N-({3-nitro-4-[(tetrahydro-2H-pyran-4-ylmethyl)amino]phenyl}sulfonyl)benzamide]	0.618	1180	0.618
CC1(C)CCC(CN2CCN(c3ccc(C(=O)NS(=O)(=O)c4cnc5c(ccn5CC5CCOCC5)c4)c(Oc4cnc5[nH]ccc5c4)c3)CC2)=C(c2ccc(Cl)cc2)C1 [Example 388, 4-(4-{[2-(4-chlorophenyl)-4,4-dimethylcyclohex-1-en-1-yl]methyl}piperazin-1-yl)-2-(1H-pyrrolo[2,3-b]pyridin-5-yloxy)-N-{[1-(tetrahydro-2H-pyran-4-ylmethyl)-1H-pyrrolo[2,3-b]pyridin-5-yl]sulfonyl}benzamide]	0.812	> 1000	
COC[C@H]1CC[C@@H](CNc2ccc(S(=O)(=O)NC(=O)c3ccc(N4CCN(CC5=C(c6ccc(Cl)cc6)CC(C)(C)CC5)CC4)cc3Oc3cnc4[nH]ccc4c3)cc2[N+](=O)[O-])CC1 [Example 382, 4-(4-{[2-(4-chlorophenyl)-4,4-dimethylcyclohex-1-en-1-yl]methyl}piperazin-1-yl)-N-{[4-({[cis-4-(methoxymethyl)cyclohexyl]methyl}amino)-3-nitrophenyl]sulfonyl}-2-(1H-pyrrolo[2,3-b]pyridin-5-yloxy)benzamide]	< 0.01	27	
CC1(C)CCC(CN2CCN(c3ccc(C(=O)NS(=O)(=O)c4ccc(NC(=O)N5CCC(N6CCOCC6)CC5)c(Cl)c4)c(Oc4cnc5[nH]ccc5c4)c3)CC2)=C(c2ccc(Cl)cc2)C1 [Example 398, N-(2-chloro-4-{[4-(4-{[2-(4-chlorophenyl)-4,4-dimethylcyclohex-1-en-1-yl]methyl}piperazin-1-yl)-2-(1H-pyrrolo[2,3-b]pyridin-5-yloxy)benzoyl]sulfamoyl}phenyl)-4-(morpholin-4-yl)piperidine-1-carboxamide]	0.149	548	
CC1(C)CCC(CN2CCN(c3ccc(C(=O)NS(=O)(=O)c4ccc(OC[C@H]5CC[C@H](O)CC5)c([N+](=O)[O-])c4)c(Oc4cnc5[nH]ccc5c4)c3)CC2)=C(c2ccc(Cl)cc2)C1 [Example 196, Trans-4-(4-{[2-(4-chlorophenyl)-4,4-dimethylcyclohex-1-en-1-yl]methyl}piperazin-1-yl)-N-({4-[(4-hydroxycyclohexyl)methoxy]-3-nitrophenyl}sulfonyl)-2-(1H-pyrrolo[2,3-b]pyridin-5-yloxy)benzamide]		1.72	
CC1(C)CCC(CN2CCN(c3ccc(C(=O)NS(=O)(=O)c4cnc(OCC5CCC6(CC5)CNC(=O)O6)c(Cl)c4)c(Oc4cnc5[nH]ccc5c4)c3)CC2)=C(c2ccc(Cl)cc2)C1 (single isomer, unassigned) [Example 396, N-[(5-chloro-6-{[(5r,8r)-2-oxo-1-oxa-3-azaspiro[4.5]dec-8-yl]methoxy}pyridin-3-yl)sulfonyl]-4-(4-{[2-(4-chlorophenyl)-4,4-dimethylcyclohex-1-en-1-yl]methyl}piperazin-1-yl)-2-(1H-pyrrolo[2,3-b]pyridin-5-yloxy)benzamide]	0.014	84.1	
COCC1CCN(C(=O)Nc2ccc(S(=O)(=O)NC(=O)c3ccc(N4CCN(CC5=C(c6ccc(Cl)cc6)CC(C)(C)CC5)CC4)cc3Oc3cnc4[nH]ccc4c3)cc2Cl)CC1 [Example 395, N-(2-chloro-4-{[4-(4-{[2-(4-chlorophenyl)-4,4-dimethylcyclohex-1-en-1-yl]methyl}piperazin-1-yl)-2-(1H-pyrrolo[2,3-b]pyridin-5-yloxy)benzoyl]sulfamoyl}phenyl)-4-(methoxymethyl)piperidine-1-carboxamide]	0.257	> 1000	
CC1(C)CCC(CN2CCN(c3ccc(C(=O)NS(=O)(=O)c4ccc(NN5CCS(=O)(=O)CC5)c([N+](=O)[O-])c4)c(Oc4cnc5[nH]ccc5c4)c3)CC2)=C(c2ccc(Cl)cc2)C1 [Example 107, Trans-4-(4-{[2-(4-chlorophenyl)-4,4-dimethylcyclohex-1-en-1-yl]methyl}piperazin-1-yl)-N-({4-[(1,1-dioxidothiomorpholin-4-yl)amino]-3-nitrophenyl}sulfonyl)-2-(1H-pyrrolo[2,3-b]pyridin-5-yloxy)benzamide]	0.035	61.2	
COC[C@H]1CC[C@H](CNc2ccc(S(=O)(=O)NC(=O)c3ccc(N4CCN(CC5=C(c6ccc(Cl)cc6)CC(C)(C)CC5)CC4)cc3Oc3cnc4[nH]ccc4c3)cc2[N+](=O)[O-])CC1 [Example 383, 4-(4-{[2-(4-chlorophenyl)-4,4-dimethylcyclohex-1-en-1-yl]methyl}piperazin-1-yl)-N-{[4-({[trans-4-(methoxymethyl)cyclohexyl]methyl}amino)-3-nitrophenyl]sulfonyl}-2-(1H-pyrrolo[2,3-b]pyridin-5-yloxy)benzamide]	< 0.01	12.4	
CC1(C)CCC(CN2CCN(c3ccc(C(=O)NS(=O)(=O)c4ccc(OCC5CCC(C)(O)CC5)c(Cl)c4)c(Oc4cnc5[nH]ccc5c4)c3)CC2)=C(c2ccc(Cl)cc2)C1 (stereo not drawn) [Example 362, N-({3-chloro-4-[(trans-4-hydroxy-4-methylcyclohexyl)methoxy]phenyl}sulfonyl)-4-(4-{[2-(4-chlorophenyl)-4,4-dimethylcyclohex-1-en-1-yl]methyl}piperazin-1-yl)-2-(1H-pyrrolo[2,3-b]pyridin-5-yloxy)benzamide]		31.7	
[2H]C1([2H])N(CC2=C(c3ccc(Cl)cc3)CC(C)(C)CC2)C([2H])([2H])C([2H])([2H])N(c2ccc(C(=O)NS(=O)(=O)c3ccc(NCC4CCOCC4)c([N+](=O)[O-])c3)c(Oc3cnc4[nH]ccc4c3)c2)C1([2H])[2H] [Example 369, 4-[4-{[2-(4-chlorophenyl)-4,4-dimethylcyclohex-1-en-1-yl]methyl}(2H8)piperazin-1-yl]-N-({3-nitro-4-[(tetrahydro-2H-pyran-4-ylmethyl)amino]phenyl}sulfonyl)-2-(1H-pyrrolo[2,3-b]pyridin-5-yloxy)benzamide]		8	
CCOC(=O)N1CCN(c2ccc(S(=O)(=O)NC(=O)c3ccc(N4CCN(CC5=C(c6ccc(Cl)cc6)CC(C)(C)CC5)CC4)cc3Oc3cnc4[nH]ccc4c3)cc2[N+](=O)[O-])CC1 [Example 222, ethyl 4-(4-{[4-(4-{[2-(4-chlorophenyl)-4,4-dimethylcyclohex-1-en-1-yl]methyl}piperazin-1-yl)-2-(1H-pyrrolo[2,3-b]pyridin-5-yloxy)benzoyl]sulfamoyl}-2-nitrophenyl)piperazine-1-carboxylate]	0.938		

Source: patent US8580794B2 (AbbVie Inc., priority 2009, dated 2013)
